According to ChEMBL document CHEMBL2203030, “Synthesis, characterization, antidepressant and antioxidant activity of novel piperamides bearing piperidine and piperazine analogues” (Bioorg Med Chem Lett, 2012):
In brackets after ≈: the same amount, converted by molar mass.

Columns and labels:
Assay type in all cases: functional
[1] = system: Radical scavenging activity; assay: Antioxidant activity assessed as DPPH free radical scavenging activity by spectrophotometry
Mus musculus [2] = assay: Antidepressant activity in Swiss albino mouse assessed as mean immobility time measured during 6 mins period at 20 mg/kg, po administered 30 mins before test by tail suspension test (reference value: 185.7 +/- 5.33 secs)
Escherichia coli [3] = assay: Antimicrobial activity against Escherichia coli NCIM 2574 at 100 ug/mL incubated for 24 hrs by agar disc diffusion method; conditions: NCIM 2574, 24 h, read-out: IZ
Staphylococcus aureus [4] = assay: Antimicrobial activity against Staphylococcus aureus NCIM 5021 at 100 ug/mL incubated for 24 hrs by agar disc diffusion method; conditions: NCIM 5021, 24 h, read-out: IZ
Candida albicans [5] = assay: Antimicrobial activity against Candida albicans NCIM 3471 by broth dilution method
Mus musculus [6] = assay: Antidepressant activity in Swiss albino mouse assessed as mean immobility time measured during last 4 mins of single 6 mins test session at 20 mg/kg, po by forced swim test (reference value: 75.33 +/- 3.35 secs)
Pseudomonas aeruginosa [7] = assay: Antimicrobial activity against Pseudomonas aeruginosa NCIM 5029 at 100 ug/mL incubated for 24 hrs by agar disc diffusion method; conditions: NCIM 5029, 24 h, read-out: IZ
Aspergillus flavus [8] = assay: Antimicrobial activity against Aspergillus flavus NCIM 524 by broth dilution method
Bacillus subtilis [9] = assay: Antimicrobial activity against Bacillus subtilis NCIM 2999 at 100 ug/mL incubated for 24 hrs by agar disc diffusion method; conditions: NCIM 2999, 24 h, read-out: IZ
[10] = Antioxidant activity assessed as superoxide scavenging activity using xanthine-xanthine oxidase system by NBT dye reduction based assay
Bacillus subtilis [11] = assay: Antimicrobial activity against Bacillus subtilis NCIM 2999 by broth dilution method
Aspergillus flavus [12] = assay: Antimicrobial activity against Aspergillus flavus NCIM 524 at 100 ug/mL incubated for 48 hrs by agar disc diffusion method; conditions: NCIM 524, 48 h, read-out: IZ
Staphylococcus aureus [13] = assay: Antimicrobial activity against Staphylococcus aureus NCIM 5021 by broth dilution method
Escherichia coli [14] = assay: Antimicrobial activity against Escherichia coli NCIM 2574 by broth dilution method
Pseudomonas aeruginosa [15] = assay: Antimicrobial activity against Pseudomonas aeruginosa NCIM 5029 by broth dilution method
Candida albicans [16] = assay: Antimicrobial activity against Candida albicans NCIM 3471 at 100 ug/mL incubated for 48 hrs by agar disc diffusion method; conditions: NCIM 3471, 48 h, read-out: IZ

Work on `COc1cc(/C=C/C(=O)N2C(C)CCCC2C)cc2c1OCO2` (stereo not given) yielded an IC50 [1] of 13.8 µg/mL (≈ 43.5 µM), a Time (Mus musculus [2]) of 77.33 s and a zone of inhibition at 100 µg/mL (Escherichia coli [3]) of 10 mm. The zone of inhibition at 100 µg/mL (Staphylococcus aureus [4]) was 11 mm, the MIC (Candida albicans [5]) was 25 µg/mL (≈ 78.8 µM) and the Time (Mus musculus [6]) was 43.33 s. For the same molecule, the zone of inhibition at 100 µg/mL (Pseudomonas aeruginosa [7]) was 11 mm, the MIC (Aspergillus flavus [8]) was 25 µg/mL (≈ 78.8 µM) and the zone of inhibition at 100 µg/mL (Bacillus subtilis [9]) was 12 mm. It also gave an IC50 [10] of 15.8 µg/mL (≈ 49.8 µM), an MIC (Bacillus subtilis [11]) of 30 µg/mL (≈ 94.5 µM) and a zone of inhibition at 100 µg/mL (Aspergillus flavus [12]) of 15 mm. It also gave an MIC (Staphylococcus aureus [13]) of 28 µg/mL (≈ 88.2 µM), an MIC (Escherichia coli [14]) of 50 µg/mL (≈ 158 µM) and an MIC (Pseudomonas aeruginosa [15]) of 30 µg/mL (≈ 94.5 µM). It also gave a zone of inhibition at 100 µg/mL (Candida albicans [16]) of 12 mm.

With `COc1cc(/C=C/C(=O)N2CCC(C)CC2)cc2c1OCO2` the IC50 [1] was 15.3 µg/mL (≈ 50.4 µM), the Time (Mus musculus [2]) was 104.9 s and the zone of inhibition at 100 µg/mL (Escherichia coli [3]) was 10 mm. It also gave a zone of inhibition at 100 µg/mL (Staphylococcus aureus [4]) of 12 mm, an MIC (Candida albicans [5]) of 30 µg/mL (≈ 98.9 µM) and a Time (Mus musculus [6]) of 51.6 s. For the same molecule, the zone of inhibition at 100 µg/mL (Pseudomonas aeruginosa [7]) was 9 mm, the MIC (Aspergillus flavus [8]) was 30 µg/mL (≈ 98.9 µM) and the zone of inhibition at 100 µg/mL (Bacillus subtilis [9]) was 10 mm. The IC50 [10] was 19.8 µg/mL (≈ 65.3 µM), the MIC (Bacillus subtilis [11]) was 25 µg/mL (≈ 82.4 µM) and the zone of inhibition at 100 µg/mL (Aspergillus flavus [12]) was 12 mm. The MIC (Staphylococcus aureus [13]) was 24 µg/mL (≈ 79.1 µM), the MIC (Escherichia coli [14]) was 40 µg/mL (≈ 132 µM) and the MIC (Pseudomonas aeruginosa [15]) was 36 µg/mL (≈ 119 µM). The zone of inhibition at 100 µg/mL (Candida albicans [16]) was 10 mm.

`COc1cc(/C=C/C(=O)N2CCNCC2)cc2c1OCO2` showed an IC50 [1] of 20.1 µg/mL (≈ 69.2 µM), a Time (Mus musculus [2]) of 178 s and a zone of inhibition at 100 µg/mL (Escherichia coli [3]) of 11 mm. For the same molecule, the zone of inhibition at 100 µg/mL (Staphylococcus aureus [4]) was 14 mm, the MIC (Candida albicans [5]) was 25 µg/mL (≈ 86.1 µM) and the Time (Mus musculus [6]) was 71 s. For the same molecule, the zone of inhibition at 100 µg/mL (Pseudomonas aeruginosa [7]) was 13 mm, the MIC (Aspergillus flavus [8]) was 15 µg/mL (≈ 51.7 µM) and the zone of inhibition at 100 µg/mL (Bacillus subtilis [9]) was 10 mm. It also gave an IC50 [10] of 38.4 µg/mL (≈ 132 µM), an MIC (Bacillus subtilis [11]) of 50 µg/mL (≈ 172 µM) and a zone of inhibition at 100 µg/mL (Aspergillus flavus [12]) of 14 mm. For the same molecule, the MIC (Staphylococcus aureus [13]) was 30 µg/mL (≈ 103 µM), the MIC (Escherichia coli [14]) was 20 µg/mL (≈ 68.9 µM) and the MIC (Pseudomonas aeruginosa [15]) was 25 µg/mL (≈ 86.1 µM). The zone of inhibition at 100 µg/mL (Candida albicans [16]) was 10 mm.

`COc1cc(/C=C/C(=O)N2CCN(C(C)=O)CC2)cc2c1OCO2` gave an IC50 [1] of 23.2 µg/mL (≈ 69.8 µM), a Time (Mus musculus [2]) of 116.2 s and a zone of inhibition at 100 µg/mL (Escherichia coli [3]) of 12 mm. It also gave a zone of inhibition at 100 µg/mL (Staphylococcus aureus [4]) of 11 mm, an MIC (Candida albicans [5]) of 15 µg/mL (≈ 45.1 µM) and a Time (Mus musculus [6]) of 55.83 s. For the same molecule, the zone of inhibition at 100 µg/mL (Pseudomonas aeruginosa [7]) was 14 mm, the MIC (Aspergillus flavus [8]) was 22 µg/mL (≈ 66.2 µM) and the zone of inhibition at 100 µg/mL (Bacillus subtilis [9]) was 16 mm. The IC50 [10] was 21.9 µg/mL (≈ 65.9 µM), the MIC (Bacillus subtilis [11]) was 14 µg/mL (≈ 42.1 µM) and the zone of inhibition at 100 µg/mL (Aspergillus flavus [12]) was 10.4 mm. It also gave an MIC (Staphylococcus aureus [13]) of 14 µg/mL (≈ 42.1 µM), an MIC (Escherichia coli [14]) of 18 µg/mL (≈ 54.2 µM) and an MIC (Pseudomonas aeruginosa [15]) of 18.7 µg/mL (≈ 56.3 µM). It also gave a zone of inhibition at 100 µg/mL (Candida albicans [16]) of 11 mm.

In the case of `COc1ccccc1N1CCN(C(=O)/C=C/c2cc(OC)c3c(c2)OCO3)CC1`, the IC50 [1] is reported as 14.7 µg/mL (≈ 37.1 µM), the Time (Mus musculus [2]) is reported as 124.2 s and the zone of inhibition at 100 µg/mL (Escherichia coli [3]) is reported as 9 mm. The zone of inhibition at 100 µg/mL (Staphylococcus aureus [4]) was 14 mm, the MIC (Candida albicans [5]) was 17 µg/mL (≈ 42.9 µM) and the Time (Mus musculus [6]) was 59.16 s. The zone of inhibition at 100 µg/mL (Pseudomonas aeruginosa [7]) was 11 mm, the MIC (Aspergillus flavus [8]) was 23 µg/mL (≈ 58 µM) and the zone of inhibition at 100 µg/mL (Bacillus subtilis [9]) was 16 mm. The IC50 [10] was 19.4 µg/mL (≈ 48.9 µM), the MIC (Bacillus subtilis [11]) was 15 µg/mL (≈ 37.8 µM) and the zone of inhibition at 100 µg/mL (Aspergillus flavus [12]) was 13.6 mm. The MIC (Staphylococcus aureus [13]) was 16.4 µg/mL (≈ 41.4 µM), the MIC (Escherichia coli [14]) was 20 µg/mL (≈ 50.4 µM) and the MIC (Pseudomonas aeruginosa [15]) was 20 µg/mL (≈ 50.4 µM). It also gave a zone of inhibition at 100 µg/mL (Candida albicans [16]) of 14.1 mm.

In the case of `COc1cc(/C=C/C(=O)N2CCN(c3ccccc3)CC2)cc2c1OCO2`, the IC50 [1] is reported as 36.9 µg/mL (≈ 101 µM), the Time (Mus musculus [2]) is reported as 143.5 s and the zone of inhibition at 100 µg/mL (Escherichia coli [3]) is reported as 10 mm. For the same molecule, the zone of inhibition at 100 µg/mL (Staphylococcus aureus [4]) was 12 mm, the MIC (Candida albicans [5]) was 25 µg/mL (≈ 68.2 µM) and the Time (Mus musculus [6]) was 66.2 s. For the same molecule, the zone of inhibition at 100 µg/mL (Pseudomonas aeruginosa [7]) was 13 mm, the MIC (Aspergillus flavus [8]) was 40 µg/mL (≈ 109 µM) and the zone of inhibition at 100 µg/mL (Bacillus subtilis [9]) was 14 mm. The IC50 [10] was 55.3 µg/mL (≈ 151 µM), the MIC (Bacillus subtilis [11]) was 18 µg/mL (≈ 49.1 µM) and the zone of inhibition at 100 µg/mL (Aspergillus flavus [12]) was 11 mm. It also gave an MIC (Staphylococcus aureus [13]) of 18.3 µg/mL (≈ 49.9 µM), an MIC (Escherichia coli [14]) of 25 µg/mL (≈ 68.2 µM) and an MIC (Pseudomonas aeruginosa [15]) of 25 µg/mL (≈ 68.2 µM). The zone of inhibition at 100 µg/mL (Candida albicans [16]) was 13.7 mm.

With `COc1cc(/C=C/C(=O)N2CCN(c3ccccn3)CC2)cc2c1OCO2` the IC50 [1] was 19.3 µg/mL (≈ 52.5 µM), the Time (Mus musculus [2]) was 148.5 s and the zone of inhibition at 100 µg/mL (Escherichia coli [3]) was 11 mm. The zone of inhibition at 100 µg/mL (Staphylococcus aureus [4]) was 14 mm, the MIC (Candida albicans [5]) was 14 µg/mL (≈ 38.1 µM) and the Time (Mus musculus [6]) was 67.6 s. It also gave a zone of inhibition at 100 µg/mL (Pseudomonas aeruginosa [7]) of 17 mm, an MIC (Aspergillus flavus [8]) of 15 µg/mL (≈ 40.8 µM) and a zone of inhibition at 100 µg/mL (Bacillus subtilis [9]) of 12 mm. It also gave an IC50 [10] of 18.5 µg/mL (≈ 50.4 µM), an MIC (Bacillus subtilis [11]) of 15.5 µg/mL (≈ 42.2 µM) and a zone of inhibition at 100 µg/mL (Aspergillus flavus [12]) of 10.9 mm. For the same molecule, the MIC (Staphylococcus aureus [13]) was 15.2 µg/mL (≈ 41.4 µM), the MIC (Escherichia coli [14]) was 22 µg/mL (≈ 59.9 µM) and the MIC (Pseudomonas aeruginosa [15]) was 20 µg/mL (≈ 54.4 µM). It also gave a zone of inhibition at 100 µg/mL (Candida albicans [16]) of 11.4 mm.

With `O=C1O[C@H]([C@@H](O)CO)C(O)=C1O` [ASCORBIC ACID] the IC50 [1] was 12.6 µg/mL (≈ 71.5 µM).

Molecule `CN(C)CCCN1c2ccccc2CCc2ccccc21` [IMIPRAMINE] has a Time (Mus musculus [2]) of 79.5 s and a Time (Mus musculus [6]) of 32.17 s.
